Data published in US5981470A, “Uterine fibroid treatment” (The University of Birmingham, priority 1994, dated 1999).
Values belong to the molecule of their own block, whether it stands above or below them.

Assays:
myometrial cells [1] = assay: [3H]-thymidine incorporation into DNA (DNA synthesis); format: cell-based, human; settings: FIG. 4; Captopril 0.1 and 1.0 mM; 48 h; serum-free medium
Description: Myometrial cells prepared as described previously were resuspended in culture medium containing DMEM supplemented with 10% (v/v) FCS, 10 mM L-glutamine, 20 mM hepes, 100 U/mi penicillin and 100/μg/ml streptomycin in 24 well plates at a density of approximately 250×10^3 cells per well and maintained at 37° C. in a humidified atmosphere of air/CO2 (19:1).
DNA synthesis was assayed by measuring [^3 H]-thymidine incorporation into DNA. Subconfluent myometrial cells were made quiescent by incubation with serum-free medium for 48 h, the medium being replaced with serum-free medium containing 0.2% (w/v) bovine serum albumin (BSA) and [^3 H]-thymidine (0.2 μCi/well). The cells were further incubated for 48 h in the presence of angiotensin-converting enzyme (ACE) inhibitor (0.1 and 1.0 mM Captopril, hatched and solid columns respectively) or angiotensin II (100 nM AgII, crossed column). The medium was then removed and the cells incubated with 10% cold trichloroacetic acid TCA) at 4° C. for 15 min. TCA-precipitated material was redissolved in 0.2 M NaOH and the radioactivity determined by liquid scintillation counting in a β-scintillation analyser. Positive and negative controls for proliferation were established by incubating cells with 10% fetal calf serum (square column) and by growth in the absence of the agonist in serum-free medium (open column).

[2] = test system: angiotensin II-induced myometrial cell proliferation; assay: Inhibition of angiotensin II-induced myometrial cell proliferation, Coulter counter; format: cell-based, human; settings: for inhibition of angiotensin II-mediated cell proliferation: FIG. 5, 1.00 μM
Description: Tissue samples were placed into sterile calcium and magnesium-free HBSS containing penicillin (100 U/ml) and streptomycin (100 μg/ml) for transfer to the laboratory. Myometrial cells were isolated by collagenase digestion. Briefly, myometrium was finely chopped and incubated in HBSS containing 1 mg/ml collagenase IA, 20 mM Hepes, 100 U/L penicillin, 100 μg/ml streptomycin and 5 μg/ml fungizone at 37° C. until the cells were dispersed. Myometrial cells were obtained by centrifugation for 15 minutes at 400 g over 60% Percoll and the cells washed with HBSS. Myometrial cells were characterised by their ability to respond to oxytocin and staining for actin.
Cells were maintained in 175 cm^2 flasks in Dulbecco's modified Eagle's medium (DMEM) containing 10% (v/v) fetal calf serum (FCS), 1% L-glutamine,20 mM Hepes and 1% antibiotic-antimycotic mixture (10,000 U penicillin, 10 μg streptomycin, and 25 μg ml^-1 fungizone) at 37° C. in a humidified atmosphere of air/CO2 (19:1) until 95% confluent. Thereafter, the cells were trypsinised, washed and re-plated at a density of 10×10^3 cells per well in 24-well plates in 1 ml of DMEM with 10% FCS for the proliferation studies. After 24 hrs, the medium was removed and replaced with serum-free DMEM. After a further 24 hrs, the experiments were initiated on quiescent monolayers of myometrial cells. […] The corresponding medium was replaced every 24 hrs with fresh medium.
At defined time-points, the growth media was removed and the cells were washed with 1 ml of isotonic saline (0.9% sodium chloride), followed by the addition of 1 ml of 10 mM HEPES buffer containing 1.5 mM magnesium chloride, and 2 drops of Zap-oglobin (Coulter Electronics Ltd., Luton, Beds., UK) containing 2.5% acetic acid to each well. The 24-well plate was allowed to incubate at 37° C. for 10 min. After which, the suspended cells were pipetted up and down to disperse the cell clusters. The cell suspension was then added to 9 ml of counting solution containing 0.9% sodium chloride and 0.5% formalin in a Coulter counter container. […] The number of cells in each well was counted at the aperture size of 16 on the Coulter counter (Coulter Electronics Ltd., Luton, Beds U.K.). Three readings were taken for each well and a mean value of the three readings obtained. The mean (±SD) value of cell counts from the triplicate wells was calculated.
Myometrium cells were maintained in Dulbecco's modified Eagle's medium (MD) with 10% (v/v) FCS, containing 1% L-glutamine, 20 mM HEPES and 1% antibiotic-antimycotic mixture (10,000 U penicillin, 10 mg streptomycin) at 37° C. in a humidified atmosphere of air/CO2 (19:1) until 95% confluent. […] The cell growth was measured at day 4 and day 6 by counting cell numbers in a Coulter Counter. […]

[3] = test system: non-AT1/non-AT2 angiotensin II recognition site; assay: [125I]angiotensin II receptor autoradiography on myometrium/fibroid sections; format: binding, human; settings: for displacement of [125I]angiotensin II from non-AT1/non-AT2 angiotensin II recognition site: FIG. 2, unlabeled ligand 0.1 nM, human non-pregnant myometrium and fibroid sections
Description: Frozen myometrium and fibroid tissues were surrounded in embedding medium (OCT compound, Miles Scientific) before 20 μm sections were cut using a cryostat (-15 to -1 9° C.) and thaw mounted onto gelatin-coated glass slides for receptor autoradiographic studies. Sections were stored (less than 2 week) desiccated at -80° C. until used.
Slide mounted human myometrial/fibroid sections were removed from storage and allowed approximately 30 min to equilibrate to room temperature. To reduce endogenous levels of angiotensin II in the tissue, the sections were preincubated for 60 min in incubation buffer (mM; sodium chloride, 150; sodium dihydrogen phosphate, 50; magnesium chloride, 10; ethyleneglycol-bis-(β-amino-ethyl ether)-N,N'-tetra-acetic acid, 5 and 0.4% w/v bovine serum albumin, pH 7.4) at 25° C. […] Immediately following incubation, the tissue sections were washed in ice-cold incubation buffer for 2 min and dipped (1 s) in ice-cold distilled water to remove buffer salts. The sections were rapidly dried in a stream of cold dry air and exposed to Hyperfilm-[^3 H]

myometrial cells [4] = assay: Myometrial cell proliferation, cell counts in Coulter counter; format: cell-based, human; settings: for cell count, 0 day (+/-SD) / cell count, 4 days (+/-SD) / cell count, 6 days (+/-SD): Table 1, in 1% FCS
Description: Tissue samples were placed into sterile calcium and magnesium-free HBSS containing penicillin (100 U/ml) and streptomycin (100 μg/ml) for transfer to the laboratory. Myometrial cells were isolated by collagenase digestion. Briefly, myometrium was finely chopped and incubated in HBSS containing 1 mg/ml collagenase IA, 20 mM Hepes, […], 100 μg/ml streptomycin and 5 μg/ml fungizone at 37° C. until the cells were dispersed. Myometrial cells were obtained by centrifugation for 15 minutes at 400 g over 60% Percoll and the cells washed with HBSS. Myometrial cells were characterised by their ability to respond to oxytocin and staining for actin.
Cells were maintained in 175 cm^2 flasks in Dulbecco's modified Eagle's medium (DMEM) containing 10% (v/v) fetal calf serum (FCS), 1% L-glutamine,20 mM Hepes and 1% antibiotic-antimycotic mixture (10,000 U penicillin, […], and 25 μg ml^-1 fungizone) at 37° C. in a humidified atmosphere of air/CO2 (19:1) until 95% confluent. Thereafter, the cells were trypsinised, washed and re-plated at a density of 10×10^3 cells per well in 24-well plates in 1 ml of DMEM with 10% FCS for the proliferation studies. After 24 hrs, the medium was removed and replaced with serum-free DMEM. After a further 24 hrs, the experiments were initiated on quiescent monolayers of myometrial cells. To the serum-starved myometrial cells was added either angiotensin II (0.1 μm or 1.0 μm) in the presence or absence of 1% FCS or bFGF (20 ng/ml) or FCS (1%) alone or DuP753 with or without angiotensin II (0.1 μM) and cell growth measured at day 4 and day 6 by counting cell numbers in a Coulter counter as described below. The corresponding medium was replaced every 24 hrs with fresh medium.
Calibration of the Coulter counter was achieved by counting the myometrium cell suspension at reduced aperture size ranging from 0 to 32. A calibration curve was constructed from the cell counts on the function of the aperture size, and the aperture size corresponding to the middle point of the plateau part of the calibration curve was used for the cell counting. The aperture size used for myometrium cell counting was 16.
At defined time-points, the growth media was removed and the cells were washed with 1 ml of isotonic saline (0.9% sodium chloride), followed by the addition of 1 ml of 10 mM HEPES buffer containing 1.5 mM magnesium chloride, and 2 drops of Zap-oglobin (Coulter Electronics Ltd., Luton, Beds., UK) containing 2.5% acetic acid to each well. The 24-well plate was allowed to incubate at 37° C. for 10 min. After which, the suspended cells were pipetted up and down to disperse the cell clusters. The cell suspension was then added to 9 ml of counting solution containing 0.9% sodium chloride and 0.5% formalin in a Coulter counter container. Each well was washed three times with the counting solution from the same container and effluent collected in the same container. The number of cells in each well was counted at the aperture size of 16 on the Coulter counter (Coulter Electronics Ltd., Luton, Beds U.K.). Three readings were taken for each well and a mean value of the three readings obtained. The mean (±SD) value of cell counts from the triplicate wells was calculated.
As discussed above, FIG. 3(A) illutrates the effect of angiotensin II on myometrial cell proliferation. Myometrium cells were maintained in Dulbecco's modified Eagle's medium (MD) with 10% (v/v) FCS, containing 1% L-glutamine, 20 mM HEPES and 1% antibiotic-antimycotic mixture (10,000 U penicillin, 10 mg streptomycin) at 37° C. in a humidified atmosphere of air/CO2 (19:1) until 95% confluent. For the proliferation studies, the cells were plated at a density of 10×10^3 cells per well in 24 well plates in 1 ml of DMEM with 10% FCS. After 24 hrs the medium was removed and replaced with serum-free DMEM. After a further 24 hrs, the experiment was initiated on quiescent monolayers of myometrial cells. […]

Molecule: C[C@H](CS)C(=O)N1CCC[C@H]1C(=O)O [Captopril]
- reduction of DNA synthesis, of control (0% FCS) (myometrial cells [1]): ~50%

Molecule: CCCCc1nc(Cl)c(CO)n1Cc1ccc(-c2ccccc2-c2nn[nH]n2)cc1 [DuP753]
- inhibition of the effects of angiotensin II on cell proliferation ([2]; FIG. 3(B), DuP753 1 μM, angiotensin II 0.1 μM, 1% FCS): inhibits
- inhibition of angiotensin II-mediated cell proliferation [2]: significantly inhibited

Molecule: Cc1cc(Cn2cnc3c2CC(C(=O)O)N(C(=O)C(c2ccccc2)c2ccccc2)C3)ccc1N (stereo not drawn) [PD123177]
- inhibition of angiotensin II-mediated cell proliferation [2]: significantly inhibited
- inhibition of angiotensin II-mediated cell growth ([2]; preliminary data): inhibits

- displacement of [125I]angiotensin II from non-AT1/non-AT2 angiotensin II recognition site [3]: can selectively displace
Molecule: Sar-Ala-angiotensin II

- displacement of [125I]angiotensin II from non-AT1/non-AT2 angiotensin II recognition site [3]: can selectively displace
Molecule: Sar-Thr-angiotensin II

- intensity of non-AT1/non-AT2 angiotensin II recognition site labelling in fibroid tissue ([3]; FIG. 1, cold angiotensin II (1 μM)): only disappears
Molecule: angiotensin II (DRVYIHPF; Angiotensin-2; UniProt P01019 25-32, looked up)
- increase in myometrial cell proliferation compared to cells in culture medium devoid of angiotensin II (myometrial cells [4]; FIG. 3(A), 0.1 μM, after six days in culture): ~100%
- cell count, 0 day (+/-SD) (myometrial cells [4]): 64.33 +/- 2.73
- cell count, 4 days (+/-SD) (myometrial cells [4]): 167.33 +/- 21.55
- cell count, 6 days (+/-SD) (myometrial cells [4]): 333.67 +/- 7.51

Molecule: bFGF: Basic fibroblast growth factor, classic growth factor, from RD Systems
- cell count, 0 day (+/-SD) (myometrial cells [4]): 63.90 +/- 1.88
- cell count, 4 days (+/-SD) (myometrial cells [4]): 167.33 +/- 25.11
- cell count, 6 days (+/-SD) (myometrial cells [4]): 307.33 +/- 49.69
